Measured values: patent US20240285599A1, “Mature-Hepatocyte Transdifferentiation Suppressing Composition” (OSAKA UNIVERSITY, priority 2021, published 2024)

What was measured:
L-Traf3/PtenDKO mouse = assay: Oral NIKSMI in L-Traf3/PtenDKO mouse: liver HE staining, KRT19 immunostaining and KRT19 expression; type: in vivo; details: twice a day, 200 mg/kg
Experimental: A histopathological slide was deparaffinized with xylene and ethanol. HE staining was performed with hematoxylin and eosin. In immunostaining, antigen activation was performed by heating in Target Retrieval Solution (Dako, USA), followed by blocking with bovine serum albumin and a reaction through use of a primary antibody at 4° C. overnight. A frozen section was dried at room temperature, and was blocked with BSA (Nacalai Tesque, Inc., Japan), followed by a reaction through use of a primary antibody in VECTASTAIN ABC Rabbit IgG Kit (Vector Laboratories, Inc., USA). DAB Substrate Kit (Vector Laboratories, Inc., USA) was used in a staining reaction. The following antibodies were used in the immunostaining: KRT19 (1:500 Abcam, ab52625), TRAF3 (1:100 Abcam, ab217033), NIK (1:400 Novus Biologicals, NBP2-23603), p-RIP3K (1:100 Genentech), and KI67 (1:1,000 Cell Signaling, #12202S). […] The number of Ki67-positive cells in a tumor was counted with ImageJ (Fiji). The immunostaining score of TRAF3 or NIK was calculated by multiplying a staining intensity (of from 0 to 3) by a stained area (%). Human ICC patients were grouped into two groups on the basis of the median immunostaining score of TRAF3 or NIK, and were evaluated for their disease-free survival (DFS) or overall survival (OS). […]

[1] = test system: TRAF3/PTEN knockdown HepG2 cell; assay: KRT19 mRNA quantification and immunoblotting (P52) in TRAF3/PTEN knockdown HepG2; type: cell-based, human; details: HepG2 (PTKD #1); for increase in expression of P52 by knockdown of TRAF3 and PTEN: western blot
Experimental: The transfection of siRNA or a plasmid into cells was performed with Lipofectamine RNAiMAX Transfection Reagent (Thermo Fisher Scientific, Inc., USA) or Lipofectamine 2000 (Thermo Fisher Scientific, Inc., USA), respectively, and with Opti-MEM (Thermo Fisher Scientific, Inc., USA). The transfection of the siRNA was performed as follows: the cells were dispersed at a concentration of 100,000 cells/mL; 10 μM of the siRNA was mixed into 100 μL of the Opti-MEM at a ratio of 1 μL, and the mixture was left at rest for 5 minutes; and then 3 μL of the RNAiMAX was mixed into the mixture, and the whole was left at rest for 15 minutes, followed by administration to the supernatant of the previously dispersed cells. Further, a medium change was performed 24 hours thereafter.
A procedure for western blotting is as described in the previous report (Tanaka S, et al. Hepatology. 2016; 64(6): 1994-2014). The protein extracts of cells and animal tissues were prepared by using a lysis buffer having added thereto a protease inhibitor (Nacalai Tesque, Inc., Japan) and a phosphatase inhibitor (Nacalai Tesque, Inc., Japan). In western blotting for the detection of NIK, MG-132 (ChemScene, USA) was administered at a concentration of 5 μM 4 hours before protein recovery. The following antibodies were used in immunodetection: TRAF3 (1:1,000 Cell Signaling, #4729), PTEN (1:1,000 Cell Signaling, #9188), KRT19 (1:50,000 Abcam, #ab52625), p100/p52 (1:1,000 Cell Signaling, #4882), NIK (1:1,000 Cell Signaling, #4994), and β-actin (1:10,000 Sigma-Aldrich Co., LLC, #A5316). Anti-mouse IgG, HRP-linked whole Ab sheep (Cytiva, Japan), or anti-rabbit IgG, HRP-linked whole Ab donkey (Cytiva, Japan) was used as a secondary antibody, and luminescence analysis was performed with SuperSignal (trademark) West Pico PLUS Chemiluminescent Substrate (Thermo Fisher Scientific, Inc., USA).
Total RNA was extracted from a cell line and a human liver tissue with RNeasy Mini Kit (QIAGEN N.V., Nederland). Then, 1 μg of the total RNA was reverse-transcribed with ReverTra Ace qPCR RT Kit (Toyobo Co., Ltd., Tokyo) to synthesize complementary DNA. The mRNA expression of each of the following genes was analyzed through use of a TaqMan gene expression assay: human GAPDH (Hs02758991), human TRAF3 (Hs00936781), human PTEN (Hs02621230), human KRT19 (Hs00761767), human NIK (Hs01089753), mouse Gapdh (Mm09999915), mouse Traf3 (Mm00495752), mouse Pten (Mm00477208), mouse Krt19 (Mm00492980), mouse NIK (Mm00444166), and mouse Alb (Mm00802090). The gene expression amount of a human and the gene expression amount of a mouse were normalized to the expression amount of GAPDH.
The effect of TRAF3/PTEN inhibition on the expression of a bile duct marker in each of a primary human hepatocyte (hereinafter also referred to as “PHH”) and a human hepatoma cell line HepG2 cell (hereinafter also referred to as “HepG2”) was evaluated. The PHH and the HepG2 are each a mature hepatocyte having an albumin-producing ability. The TRAF3 and PTEN of each of the HepG2 and the PHH were knocked down with siRNA. The term “[…]” means a HepG2 or a PHH having introduced thereinto siRNA Traf3 #2 and Pten #1 (hereinafter also referred to as “PTKD #1HepG2” and “PTKD #1PHH” respectively). The term “PTKD #2” means a HepG2 or a PHH having introduced thereinto the siRNA Traf3 #2 and Pten #3 (hereinafter also referred to as “PTKD #2HepG2” and “PTKD #2PHH” respectively). All the siRNAs were obtained from Thermo Fisher Scientific, Inc. The sequence of each of the siRNAs is described below.
Specifically, 24 hours after the start of the culture of each of the PTKD #1HepG2 and the PTKD #1PHH obtained in Test Example 5, NIKSMI described above was added at a concentration of 9 μM. 48 Hours after that, the cells were recovered, and the mRNA of KRT19 was quantified, followed by immunoblotting. […]

[2] = NIK siRNA transfected, 72 h, FIG. 13
[3] = NIK siRNA transfected, cells recovered after 72 h culture, FIG. 13

| Compound | overgrowth of a cholangiocyte in liver (HE staining, KRT19 immunostaining) (L-Traf3/PtenDKO mouse; 14 days from age 4 weeks, liver at 6 weeks, FIG. 15A) | expression level of the bile duct marker KRT19 in the liver (L-Traf3/PtenDKO mouse; 14 days, FIG. 15B) | increase in expression of KRT19 by knockdown of TRAF3 and PTEN ([1]; NIKSMI 9 μM added 24 h after start of culture, cells recovered 48 h later, FIG. 11) | increase in expression of P52 by knockdown of TRAF3 and PTEN ([1]; NIKSMI 9 μM, 48 h, FIG. 11) | increase in expression of P52 by knockdown of TRAF3 and PTEN [1, 2] | increase in expression of KRT19 by knockdown of TRAF3 and PTEN [1, 3] |
| --- | --- | --- | --- | --- | --- | --- |
| COc1cc(C(N)=O)nc(-c2cccc(C#C[C@]3(O)CCN(C)C3=O)c2)c1 [NIKSMI, (R)-6-(3-((3-hydroxy-1-methyl-2-oxopyrrolidin-3-yl)ethynyl)phenyl)-4-methoxypicolinamide] | significantly suppressed | significantly suppressed | significantly suppressed | significantly suppressed | – | – |
| NIK KD #1: siRNA of NIK, SEQ ID NO: 2 (sense) and 3 (antisense), from Thermo Fisher Scientific (sense CAAACGCAAAGAGCAAGAAUU; antisense UUCUUGCUCUUUGCGUUUGCA; listed as RNA, chemistry not given here) | – | – | – | – | significantly suppressed | significantly suppressed |
| NIK KD #2: siRNA of NIK, SEQ ID NO: 4 (sense) and 5 (antisense), from Thermo Fisher Scientific (sense GCAAAGAGCAAGAACCAAAUU; antisense UUUGGUUCUUGCUCUUUGCGU; listed as RNA, chemistry not given here) | – | – | – | – | significantly suppressed | significantly suppressed |
